Assay results as given in patent US20180312844A1, “TREATMENT FOR CANCER METASTASIS” (The Board of Regents of the UIniversity of Texas System, priority 2015, published 2018).

Assays:
[1] = system: human melanoma metastases in visceral organs; test: Metastatic disease burden by total bioluminescence signal from visceral organs; type: in vivo, NSG mice
Description: (§1) Melanoma specimens were obtained with informed consent from all patients according to protocols approved by the Institutional Review Boards of the University of Michigan Medical School (IRBMED approvals HUM00050754 and HUM00050085 (Quintana et al., 2012) and the University of Texas Southwestern Medical Center. Unless otherwise indicated, patient-derived xenografts were established by subcutaneously injecting 100 freshly dissociated melanoma cells into the right flanks of NOD/SCID IL2Rγ^null (NSG) mice in 25% high-protein Matrigel, or by injecting intravenously or intrasplenically, depending on the experiment. The subcutaneous tumors were measured every 10 days until any tumor in the mouse cohort reached 2.5 cm in its largest diameter. Mice were monitored daily for signs of distress and euthanized according to a standard body condition score or when their tumors reached 2.5 cm in largest diameter, whichever came first. […] After intravenous and intrasplenic injections mice were imaged every month until the bioluminescence signal was saturated, then mice were euthanized and organs were analyzed visually and by bioluminescence imaging for the presence of micro and macrometastases. […] Reporters of mitochondrial mass, mitochondrial membrane potential, and ROS were used to stain equal numbers of dissociated melanoma cells and analyzed by flow cytometry. […]

[2] = system: circulating human melanoma cells; test: Frequency of circulating melanoma cells in the blood by flow cytometry; type: in vivo, NSG mice
Description: as §1

[3] = system: human melanoma cells (M405, M481, UT10) transplanted subcutaneously; test: Growth of primary subcutaneous tumors of patient-derived melanoma xenografts in NSG mice; type: in vivo
Description: as §1

[4] = system: melanoma; settings: at 5 years; 2011 meta-analysis; adjuvant treatment of melanoma; cited from earlier work

Compound: CN(Cc1cnc2nc(N)nc(N)c2n1)c1ccc(C(=O)N[C@@H](CCC(=O)O)C(=O)O)cc1 [Methotrexate]
- metastatic disease burden ([1]; methotrexate 1.25 mg/kg/day with thymidine and hypoxanthine, M405, M481, UT10, FIG. 5D): significantly reduced
- frequency of circulating melanoma cells in the blood ([2]; methotrexate 1.25 mg/kg/day with thymidine and hypoxanthine, M405, M481, UT10, FIG. 5C): significantly reduced
- growth of primary subcutaneous tumors ([3]; low dose methotrexate 1.25 mg/kg/day with thymidine and hypoxanthine, M405, M481, UT10, vs DMSO control, FIG. 5B): no significant effect

Compound: CC(=O)N[C@@H](CS)C(=O)O [NAC, N-acetyl-cysteine]
- metastatic disease burden ([1]; NAC 200 mg/kg/day s.c., mice transplanted with M405 and M481, FIG. 4C): significantly increased
- frequency of melanoma cells in the blood ([2]; NAC 200 mg/kg/day s.c., mice transplanted with M405 and UT10, FIG. 4B): significantly increased
- growth of primary subcutaneous tumors ([3]; NAC 200 mg/kg/day, daily subcutaneous injection, melanomas M405, M481, UT10, vs PBS, FIG. 4A): In no case did NAC treatment significantly affect

Compound: interferon
- increase in survival [4]: 3%
